Data published in the supplement of paper PMC10307832.

Columns and labels:
Assay in all cases: relative viability (nuclei count vs DMSO), 5 days (fraction); higher = more cells survive
LK-2 = test system: LK-2
How it was run: (§1)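 Lung cancer cell lines were pin-tool dosed in 1536-well plates on the day after seeding, with either a lone drug or a fixed anchor-drug dose plus five library-drug doses (not always all listed) in √10 steps. Nuclei were counted on 4× images after 5 days. Relative viability is the ratio of treated-well to vehicle-well nuclei counts, with each value a median of duplicate plates.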

NCI-H661 = test system: NCI-H661
How it was run: as §1

NCI-H520 = test system: NCI-H520
How it was run: as §1

PC-3 [JPC-3] = test system: PC-3 [JPC-3]
How it was run: as §1

RERF-LC-KJ = test system: RERF-LC-KJ
How it was run: as §1

NCI-H1355 = test system: NCI-H1355
How it was run: as §1

NCI-H1563 = test system: NCI-H1563
How it was run: as §1

SW 1573 = test system: SW 1573
How it was run: as §1

HCC-827 = test system: HCC-827
How it was run: as §1

SK-MES-1 = test system: SK-MES-1
How it was run: as §1

NCI-H2405 = test system: NCI-H2405
How it was run: as §1

NCI-H2228 = test system: NCI-H2228
How it was run: as §1

NCI-H1651 = test system: NCI-H1651
How it was run: as §1

ABC-1 = test system: ABC-1
How it was run: as §1

PC-14 = test system: PC-14
How it was run: as §1

HCC-15 = test system: HCC-15
How it was run: as §1

H3255 = test system: H3255
How it was run: as §1

COR-L23 = test system: COR-L23
How it was run: as §1

NCI-H1650 = test system: NCI-H1650
How it was run: as §1

EKVX = test system: EKVX
How it was run: as §1

NCI-H322M = test system: NCI-H322M
How it was run: as §1

NCI-H1734 = test system: NCI-H1734
How it was run: as §1

CAL-12T = test system: CAL-12T
How it was run: as §1

NCI-H1437 = test system: NCI-H1437
How it was run: as §1

SMILES: C[C@@H]1CN(CC(=O)Nc2ccc3c(c2)Cc2cccc(-c4cc(=O)cc(N5CCOCC5)o4)c2S3)C[C@H](C)O1 + CS(=O)(=O)CCNCc1ccc(-c2ccc3ncnc(Nc4ccc(OCc5cccc(F)c5)c(Cl)c4)c3c2)o1 [Lapatinib] (partner 2 µM)
- relative viability (LK-2; first compound 0.1265 µM): 0.938
- relative viability (LK-2; first compound 0.4 µM): 0.936
- relative viability (LK-2; first compound 4 µM): 0.948
- relative viability (NCI-H661; first compound 0.1265 µM): 0.488
- relative viability (NCI-H661; first compound 0.4 µM): 0.479
- relative viability (NCI-H661; first compound 4 µM): 0.411
- relative viability (NCI-H520; first compound 0.04 µM): 0.983
- relative viability (NCI-H520; first compound 0.1265 µM): 0.701
- relative viability (NCI-H520; first compound 0.4 µM): 0.682
- relative viability (NCI-H520; first compound 4 µM): 0.711
- relative viability (PC-3 [JPC-3]; first compound 0.04 µM): 0.512
- relative viability (PC-3 [JPC-3]; first compound 0.1265 µM): 0.394
- relative viability (PC-3 [JPC-3]; first compound 0.4 µM): 0.52
- relative viability (PC-3 [JPC-3]; first compound 4 µM): 0.454
- relative viability (RERF-LC-KJ; first compound 0.04 µM): 0.873
- relative viability (RERF-LC-KJ; first compound 0.1265 µM): 0.877
- relative viability (RERF-LC-KJ; first compound 0.4 µM): 0.808
- relative viability (RERF-LC-KJ; first compound 4 µM): 0.799
- relative viability (NCI-H1355; first compound 0.04 µM): 0.713
- relative viability (NCI-H1355; first compound 0.1265 µM): 0.992
- relative viability (NCI-H1355; first compound 0.4 µM): 0.816
- relative viability (NCI-H1355; first compound 4 µM): 0.97
- relative viability (NCI-H1563; first compound 0.04 µM): 0.834
- relative viability (NCI-H1563; first compound 0.1265 µM): 0.883
- relative viability (NCI-H1563; first compound 0.4 µM): 0.859
- relative viability (NCI-H1563; first compound 4 µM): 0.702
- relative viability (SW 1573; first compound 0.04 µM): 1.1
- relative viability (SW 1573; first compound 0.1265 µM): 1.14
- relative viability (SW 1573; first compound 0.4 µM): 1.18
- relative viability (SW 1573; first compound 4 µM): 1.08
- relative viability (HCC-827; first compound 0.04 µM): 0.172
- relative viability (HCC-827; first compound 0.1265 µM): 0.191
- relative viability (HCC-827; first compound 0.4 µM): 0.212
- relative viability (HCC-827; first compound 4 µM): 0.19
- relative viability (SK-MES-1; first compound 0.04 µM): 0.463
- relative viability (SK-MES-1; first compound 0.1265 µM): 0.53
- relative viability (SK-MES-1; first compound 0.4 µM): 0.429
- relative viability (SK-MES-1; first compound 4 µM): 0.409
- relative viability (NCI-H2405; first compound 0.04 µM): 0.879
- relative viability (NCI-H2405; first compound 0.1265 µM): 1.11
- relative viability (NCI-H2405; first compound 0.4 µM): 1.04
- relative viability (NCI-H2405; first compound 4 µM): 1.07
- relative viability (NCI-H2228; first compound 0.04 µM): 1.23
- relative viability (NCI-H2228; first compound 0.1265 µM): 1.05
- relative viability (NCI-H2228; first compound 0.4 µM): 0.974
- relative viability (NCI-H2228; first compound 4 µM): 0.618
- relative viability (NCI-H1651; first compound 0.04 µM): 0.82
- relative viability (NCI-H1651; first compound 0.1265 µM): 0.889
- relative viability (NCI-H1651; first compound 0.4 µM): 0.78
- relative viability (NCI-H1651; first compound 4 µM): 0.795
- relative viability (ABC-1; first compound 0.04 µM): 0.964
- relative viability (ABC-1; first compound 0.1265 µM): 1.06
- relative viability (ABC-1; first compound 0.4 µM): 1.22
- relative viability (ABC-1; first compound 4 µM): 1.21
- relative viability (PC-14; first compound 0.04 µM): 0.277
- relative viability (PC-14; first compound 0.1265 µM): 0.298
- relative viability (PC-14; first compound 0.4 µM): 0.298
- relative viability (PC-14; first compound 4 µM): 0.316
- relative viability (HCC-15; first compound 0.04 µM): 0.866
- relative viability (HCC-15; first compound 0.1265 µM): 0.736
- relative viability (HCC-15; first compound 0.4 µM): 0.929
- relative viability (HCC-15; first compound 4 µM): 0.763
- relative viability (H3255; first compound 0.04 µM): 0.221
- relative viability (H3255; first compound 0.1265 µM): 0.242
- relative viability (H3255; first compound 0.4 µM): 0.233
- relative viability (H3255; first compound 4 µM): 0.214
- relative viability (COR-L23; first compound 0.04 µM): 0.893
- relative viability (COR-L23; first compound 0.1265 µM): 1.08
- relative viability (COR-L23; first compound 0.4 µM): 1.12
- relative viability (COR-L23; first compound 4 µM): 1.05
- relative viability (NCI-H1650; first compound 0.04 µM): 0.287
- relative viability (NCI-H1650; first compound 0.1265 µM): 0.812
- relative viability (NCI-H1650; first compound 0.4 µM): 0.719
- relative viability (NCI-H1650; first compound 4 µM): 0.588
- relative viability (EKVX; first compound 0.04 µM): 0.271
- relative viability (EKVX; first compound 0.1265 µM): 0.179
- relative viability (EKVX; first compound 0.4 µM): 0.224
- relative viability (EKVX; first compound 4 µM): 0.211
- relative viability (NCI-H322M; first compound 0.04 µM): 0.39
- relative viability (NCI-H322M; first compound 0.1265 µM): 0.587
- relative viability (NCI-H322M; first compound 0.4 µM): 0.626
- relative viability (NCI-H322M; first compound 4 µM): 0.535
- relative viability (NCI-H1734; first compound 0.04 µM): 1.02
- relative viability (NCI-H1734; first compound 0.1265 µM): 1.17
- relative viability (NCI-H1734; first compound 0.4 µM): 1.03
- relative viability (NCI-H1734; first compound 4 µM): 1.23
- relative viability (CAL-12T; first compound 0.04 µM): 0.28
- relative viability (CAL-12T; first compound 0.1265 µM): 0.69
- relative viability (CAL-12T; first compound 0.4 µM): 0.667
- relative viability (CAL-12T; first compound 4 µM): 0.636
- relative viability (NCI-H1437; first compound 0.04 µM): 0.758
- relative viability (NCI-H1437; first compound 0.1265 µM): 0.703
- relative viability (NCI-H1437; first compound 0.4 µM): 0.834
- relative viability (NCI-H1437; first compound 4 µM): 0.702
